Measurements as given in patent US20240238317A1, “METHODS FOR REDUCING INTRAOCULAR PRESSURE” (UNIVERSITY OF MISSISSIPPI, priority 2021, published 2024).
Where “and” joins values, the source holds several entries; their conditions need not be identical. Identical values can stand only once.

Experiments:
IOP = conditions: topical application; cited from earlier work
[1] = tested on: IOP in test eye of DB rabbits; experiment: Combination dose multiple day application study: IOP lowering after topical co-administration of two formulations (second 15 minutes after first)
[2] = tested on: IOP in test eye of DB rabbits; experiment: Single treatment multiple day application study: IOP lowering after topical administration of one formulation (QD, 5 days); assay type: in vivo, pigmented (Dutch Belted; DB) rabbits; set-up: Test eye IOP: unit not given here; conditions: for Drop in IOP: test eye
From the text: The rabbits were split into three groups.
The IOP profile following multi-day (QD, 5 days) exposure to a single formulation, in pigmented DB rabbits, is presented in FIGS. 1-26.

[3] = Average of days 1, 3, 5, 30 min
[4] = Average of days 1, 3, 5, 60 min
[5] = Average of days 1, 3, 5, 90 min
[6] = Average of days 1, 3, 5, 120 min
[7] = Average of days 1, 3, 5, 150 min
[8] = Average of days 1, 3, 5, 180 min
[9] = Average of days 1, 3, 5, 240 min
[10] = Average of days 1, 3, 5, 300 min
[11] = Average of days 1, 3, 5, 360 min
[12] = Average of days 1, 3, 5, 420 min
[13] = Average of days 1, 3, 5, 480 min
[14] = Average of days 1, 3, 5, 540 min
[15] = Average of days 1, 3, 5, 1440 min

## CCCCCc1cc(O)c2c(c1)OC(C)(C)[C@@H]1CCC(C)=C[C@@H]21 [THC, Delta-9-tetrahydrocannabinol]
IOP
  effect on IOP: no effect on IOP

## CC(C)OC(=O)CCC/C=C\C[C@@H]1[C@@H](CC[C@@H](O)CCc2ccccc2)[C@H](O)C[C@@H]1O [Latanoprost]
[1]
  comparison of IOP lowering of combinations with single treatments: decreased the efficacy of both THC-VHS-NEC and Rhopressa® when combined
[2]; Average of days 1, 3, 5, 0 min
  Test eye IOP: 24.6
  Drop in IOP: 0.0%
[2]; [3]
  Test eye IOP: 20.1
  Drop in IOP: −18.3%
[2]; [4]
  Test eye IOP: 19.6
  Drop in IOP: −20.3%
[2]; [5]
  Test eye IOP: 19.5
  Drop in IOP: −20.5%
[2]; [6]
  Test eye IOP: 19.7
  Drop in IOP: −19.8%
[2]; [7]
  Test eye IOP: 19.6
  Drop in IOP: −20.5%
[2]; [8]
  Test eye IOP: 20.0
  Drop in IOP: −18.7%
[2]; [9]
  Test eye IOP: 19.5
  Drop in IOP: −20.6%
[2]; [10]
  Test eye IOP: 19.7
  Drop in IOP: −21.7%
[2]; [11]
  Test eye IOP: 19.9
  Drop in IOP: −19.1%
[2]; [12]
  Test eye IOP: 21.0
  Drop in IOP: −14.5%
[2]; [13]
  Test eye IOP: 23.9
  Drop in IOP: −2.9%
[2]; [14]
  Test eye IOP: 24.8
  Drop in IOP: 0.7%
[2]; [15]
  Test eye IOP: 24.4
  Drop in IOP: −2.2%
[2]; Day 1, 0 min
  Test eye IOP: 25.2
  Drop in IOP: 0.0%
[2]; Day 1, 30 min
  Test eye IOP: 20.0
  Drop in IOP: −20.5%
[2]; Day 1, 60 min
  Test eye IOP: 19.6
  Drop in IOP: −21.9%
[2]; Day 1, 90 min
  Test eye IOP: 19.2
  Drop in IOP: −23.7%
[2]; Day 1, 120 min
  Test eye IOP: 19.8
  Drop in IOP: −21.3%
[2]; Day 1, 150 min
  Test eye IOP: 19.4
  Drop in IOP: −22.9%
[2]; Day 1, 180 min
  Test eye IOP: 20.2
  Drop in IOP: −19.7%
[2]; Day 1, 240 min
  Test eye IOP: 19.7
  Drop in IOP: −21.8%
[2]; Day 1, 300 min
  Test eye IOP: 19.7
  Drop in IOP: −21.7%
[2]; Day 1, 360 min
  Test eye IOP: 19.7
  Drop in IOP: −21.7%
[2]; Day 1, 420 min
  Test eye IOP: 20.9
  Drop in IOP: −16.8%
[2]; Day 1, 480 min
  Test eye IOP: 23.8
  Drop in IOP: −5.4%
[2]; Day 1, 540 min
  Test eye IOP: 25.2
  Drop in IOP: 0.3%
[2]; Day 1, 1440 min
  Test eye IOP: 24.4
  Drop in IOP: −3.0%
[2]; Day 3, 0 min
  Test eye IOP: 24.6
  Drop in IOP: 0.0%
[2]; Day 3, 30 min
  Test eye IOP: 19.8
  Drop in IOP: −19.4%
[2]; Day 3, 60 min
  Test eye IOP: 19.5
  Drop in IOP: −20.7%
[2]; Day 3, 90 min
  Test eye IOP: 19.8
  Drop in IOP: −19.6%
[2]; Day 3, 120 min
  Test eye IOP: 19.6
  Drop in IOP: −20.3%
[2]; Day 3, 150 min
  Test eye IOP: 19.6
  Drop in IOP: −20.3%
[2]; Day 3, 180 min
  Test eye IOP: 20.0
  Drop in IOP: −18.7%
[2]; Day 3, 240 min
  Test eye IOP: 19.6
  Drop in IOP: −20.5%
[2]; Day 3, 360 min
  Test eye IOP: 19.6
  Drop in IOP: −20.3%
[2]; Day 3, 420 min
  Test eye IOP: 21.0
  Drop in IOP: −14.7%
[2]; Day 3, 480 min
  Test eye IOP: 23.7
  Drop in IOP: −3.6%
[2]; Day 3, 540 min
  Test eye IOP: 24.5
  Drop in IOP: −0.4%
[2]; Day 3, 1440 min
  Test eye IOP: 24.2
  Drop in IOP: −3.6%
[2]; Day 5, 0 min
  Test eye IOP: 24.1
  Drop in IOP: 0.0%
[2]; Day 5, 30 min
  Test eye IOP: 20.4
  Drop in IOP: −15.2%
[2]; Day 5, 60 min
  Test eye IOP: 19.7
  Drop in IOP: −18.2%
[2]; Day 5, 90 min
  Test eye IOP: 19.7
  Drop in IOP: −18.2%
[2]; Day 5, 120 min
  Test eye IOP: 19.8
  Drop in IOP: −17.8%
[2]; Day 5, 150 min
  Test eye IOP: 19.7
  Drop in IOP: −18.2%
[2]; Day 5, 180 min
  Test eye IOP: 19.8
  Drop in IOP: −17.5%
[2]; Day 5, 240 min
  Test eye IOP: 19.3
  Drop in IOP: −19.6%
[2]; Day 5, 360 min
  Test eye IOP: 20.3
  Drop in IOP: −15.4%
[2]; Day 5, 420 min
  Test eye IOP: 21.2
  Drop in IOP: −12.0%
[2]; Day 5, 480 min
  Test eye IOP: 24.1
  Drop in IOP: 0.3%
[2]; Day 5, 540 min
  Test eye IOP: 24.6
  Drop in IOP: 2.1%
[2]; Day 5, 1440 min
  Test eye IOP: 24.7
  Drop in IOP: 0.0%
[2]; single formulation
  IOP returned to baseline (time): ≤ 480 min
[2]; single formulation, QD, 5 days
  average max drop in IOP: about 21.3+2.1%
[2]; single formulation, Day 1
  Max IOP drop (%): −23.7%
  Max IOP drop (mmHg): 6.0 mmHg and 6 mmHg
  Time of max IOP drop (%): 90 min
  Time of max IOP drop (mmHg): 90 min
[2]; single formulation, Day 3
  Max IOP drop (%): −20.7%
  Max IOP drop (mmHg): 5.1 mmHg
  Time of max IOP drop (%): 60 min
  Time of max IOP drop (mmHg): 60 min
[2]; single formulation, Day 5
  Max IOP drop (%): −19.6%
  Max IOP drop (mmHg): 4.7 mmHg
  Time of max IOP drop (%): 240 min
  Time of max IOP drop (mmHg): 240 min
[2]; single formulation, day 1
  time to max drop in IOP: 60 min
[2]; single formulation, day 3
  time to max drop in IOP: 90 min
[2]; single formulation, day 5
  time to max drop in IOP: 240 min
[2]; single formulation, from 30 to 420 mins
  maintained average drop in IOP: 19.4 ± 1.9%
